According to patent publication US10137116B2, “Benzimidazole sulfide derivatives for the treatment or prevention of tuberculosis” (priority 2015, dated 2018):
≈ marks a conversion by molar mass, not a printed value. Entries after “also recorded” stand apart in the source; their conditions may differ. Read-outs that look alike come from different tables or passages of the source.

What was measured:
[1] = system: intracellular Mtb-GFP (Mtb-Erdman) in MRC-5 fibroblasts; experiment: microbe, parasite or virus in culture; format: cell-based, Mycobacterium tuberculosis; conditions: for IC50: Mycobacterium tuberculosis, ERDMAN, MRC5; for activity in ex vivo assay: intracellular (ex vivo) assay
[2] = system: Mtb H37Rv; experiment: microbe, parasite or virus in culture; format: cell-based, Mycobacterium tuberculosis; conditions: for IC50: Mycobacterium tuberculosis, H37RV
[3] = system: Mtb-Erdman infected MRC-5 human lung fibroblasts; experiment: Fibroblast survival assay (HTS): protection of MRC-5 lung fibroblasts from Mtb-induced cytotoxicity; format: cell-based, Mycobacterium tuberculosis; conditions: for activity in fibroblast survival assay: concentrations up to 50 μM, FIG. 1
[4] = Drug quantification in 7H9 broth (LC/MS); format: physicochemical; conditions: 500 nM, 48 hours, FIG. 3C
Experimental: (§1) Quantification in 7H9 broth was performed with 500 nM of LPZ, acetonitrile was added in a 1:1 ratio at given time-points followed by spinning and shock freezing. The UPLC separation was done on an Agilent 1290 Infinity LC system including the 1290 Infinity LC system Binary Pump with integrated degasser, the High Performance Autosampler and a thermostatted column compartment. The samples (2 μL) were injected into a Zorbax Extend-C18 (2.1×50 mm, 1.8 μm) analytical column operated at 40° C., using H2O—HCOOH 0.1% and CH3CN—HCOOH 0.1% as mobile phases A and B (2 to 100% B in 5 min) at a flow rate of 0.4 mL/min. The UPLC system was interfaced with a 6530 Accurate-Mass Q-TOF LC/MS system (Agilent Technologies). Electrospray-ionisation MS data were acquired in the positive ionization mode, in the mass range m/z 100-1000 (2 spectra/s). Experimental parameters were set as follows: Fragmentor: 190V, Vcap: 3500 V, gas temperature: 300° C., sheath gas temperature: 350° C. External calibration was carried out with a solution of ESI_L (Agilent). Data were processed using MassHunter.
In mycobacterial growth medium, the results were markedly different. A rapid decay of LPZ was also observed confirming the instability of this drug. However, though LPZS was detectable in increasing amounts over time, it was not the major product of LPZ decay (FIG. 3C). […]

[5] = system: intracellular Mtb-GFP in RAW264.7 macrophages; experiment: microbe, parasite or virus in culture; format: cell-based; conditions: Mycobacterium tuberculosis, FIG. 2B, read-out: IC50 (growth of intracellular bacteria)
[6] = Intracellular drug quantification in MRC-5 cells (LC/MS); format: in vitro ADME, human; conditions: MRC-5 cells exposed to 2 μM, 48 hours
Experimental: For intracellular drug quantification, 20000 MRC-5 cells were seeded in 96 well plates and exposed to 2 μM of LPZ. At given time-points, cells were extensively washed with PBS and lysed with 0.1% Triton X-100 in PBS and acetonitrile (1:1 ratio). After spinning at 15,000 g at 4° C., samples were shock frozen in liquid nitrogen and stored at −80° C. for MS.
as §1, with “Experimental parameters were set as follows: Fragmentor: 190V, Vcap: 3500 V, gas temperature: 300° C., sheath gas temperature: 350° C. External calibration was carried out with a solution of ESI_L (Agilent). Data were processed using MassHunter.” left out
The intracellular LPZ and possible metabolites were quantified at different time-points over a period of 48 hours using LC/MS.

[7] = parameters: species or system BALB/c mice; conditions: BALB/c, mouse, in vivo, 0.5 h
Experimental: For pharmacokinetic studies BALB/c mice (18-20 g) were given 100 mg/kg or 300 mg/kg LPZS in 20% TPGS (D-α tocopheryl polyethylene glycol 1000 succinate). At given time-points, blood from 3 mice was taken and, after spinning, serum was treated with acetonitrile (1:4 ratio). After a second spin, supernatants were frozen for LC/MS experiments.
BALB/c mice were given 100 mg/kg or 300 mg/kg of LPZS by oral gavage and serum levels were determined after 0.5, 1, 2, 4, 8 and 24 hours (FIG. 5).

[8] = system: Corynebacterium glutamicum; experiment: REMA MIC; format: cell-based
[9] = system: Mycobacterium abcessus 2005-0524; experiment: REMA MIC; format: cell-based; conditions: 20050524
[10] = system: non-Mtb strains; experiment: MIC, summary statement for non-Mtb strains; format: cell-based; conditions: other non-Mtb strains such as Mycobacterium abcessus 2005-0524 or Escherichia coli
[11] = target: human proton pump (Homo sapiens, UniProt P20648); conditions: cited from earlier work
Sequence of human proton pump (P20648 whole entry): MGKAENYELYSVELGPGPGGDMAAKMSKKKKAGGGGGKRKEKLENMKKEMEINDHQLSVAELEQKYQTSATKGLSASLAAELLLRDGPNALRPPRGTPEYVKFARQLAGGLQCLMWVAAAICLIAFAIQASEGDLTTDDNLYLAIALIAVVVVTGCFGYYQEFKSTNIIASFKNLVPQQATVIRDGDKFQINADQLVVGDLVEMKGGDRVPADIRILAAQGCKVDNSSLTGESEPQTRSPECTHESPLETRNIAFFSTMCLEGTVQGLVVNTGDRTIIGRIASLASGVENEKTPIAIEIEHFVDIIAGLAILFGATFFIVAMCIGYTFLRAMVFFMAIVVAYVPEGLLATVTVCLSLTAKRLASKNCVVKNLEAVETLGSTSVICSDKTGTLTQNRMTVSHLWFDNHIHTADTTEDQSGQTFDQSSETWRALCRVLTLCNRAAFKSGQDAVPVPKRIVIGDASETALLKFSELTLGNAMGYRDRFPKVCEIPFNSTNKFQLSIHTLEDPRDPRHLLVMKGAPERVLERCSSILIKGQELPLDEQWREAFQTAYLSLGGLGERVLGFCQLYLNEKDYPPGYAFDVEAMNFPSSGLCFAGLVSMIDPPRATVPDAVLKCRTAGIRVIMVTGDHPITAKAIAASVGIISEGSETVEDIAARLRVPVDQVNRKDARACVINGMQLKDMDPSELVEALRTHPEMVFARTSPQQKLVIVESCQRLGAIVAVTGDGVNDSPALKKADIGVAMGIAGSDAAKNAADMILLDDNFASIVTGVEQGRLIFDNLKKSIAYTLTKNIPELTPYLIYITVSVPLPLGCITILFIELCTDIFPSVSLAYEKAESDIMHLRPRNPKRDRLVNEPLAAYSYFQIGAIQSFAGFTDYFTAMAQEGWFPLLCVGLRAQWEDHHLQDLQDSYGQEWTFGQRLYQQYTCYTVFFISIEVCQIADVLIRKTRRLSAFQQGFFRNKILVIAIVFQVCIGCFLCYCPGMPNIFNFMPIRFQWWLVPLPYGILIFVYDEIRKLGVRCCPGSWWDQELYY
Sequence of human proton pump (P51164 whole entry partner): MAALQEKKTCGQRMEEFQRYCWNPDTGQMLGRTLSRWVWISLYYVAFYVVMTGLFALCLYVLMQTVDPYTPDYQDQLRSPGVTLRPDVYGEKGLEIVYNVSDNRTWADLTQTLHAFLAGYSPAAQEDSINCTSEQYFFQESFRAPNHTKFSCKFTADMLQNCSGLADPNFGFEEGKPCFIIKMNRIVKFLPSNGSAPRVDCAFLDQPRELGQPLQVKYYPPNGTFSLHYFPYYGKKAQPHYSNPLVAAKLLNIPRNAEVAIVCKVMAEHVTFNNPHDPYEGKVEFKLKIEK

[12] = system: Mycobacterium bolletii 1999-0888; experiment: REMA MIC; format: cell-based; conditions: Mycobacteroides abscessus, 19990888
[13] = system: THP-1; format: cell-based
Excerpt: (§2) Cytotoxicity of LPZS on THP1 macrophages, human liver hepatoma cells (HuH7-D12), human lung epithelial carcinoma cells (A549) and human embryonic liver cells (HepG2) (Table 5).

[14] = system: Mtb strains; experiment: MIC, summary statement for Mtb strains; format: cell-based; conditions: Mycobacterium tuberculosis; Mtb strains such as H37Rv, Erdman and HN878 (Table 3)
[15] = system: Corynebacterium diphtheriae; experiment: REMA MIC; format: cell-based
[16] = system: Staphylococcus aureus; experiment: REMA MIC; format: cell-based
[17] = system: Salmonella typhimurium; experiment: REMA MIC; format: cell-based; conditions: Salmonella enterica
[18] = system: Pseudomonas putida; experiment: REMA MIC; format: cell-based
[19] = system: Enterococcus faecalis; experiment: REMA MIC; format: cell-based
[20] = system: Mycobacterium smegmatis mc2155; experiment: microbe, parasite or virus in culture; format: cell-based; conditions: Mycolicibacterium smegmatis
[21] = system: Micrococcus Luteus; experiment: REMA MIC; format: cell-based
[22] = system: HepG2; format: cell-based, human
Excerpt: as §2

[23] = system: Mycobacterium massiliense 2005-0484; experiment: REMA MIC; format: cell-based; conditions: Mycobacteroides abscessus, 20050484
[24] = system: Mycobacterium tuberculosis H37Rv; experiment: REMA MIC; format: cell-based
[25] = system: Escherichia coli; experiment: REMA MIC; format: cell-based
[26] = system: Mycobacterium tuberculosis HN878 (Beijing strain); experiment: REMA MIC; format: cell-based
[27] = system: Mycobacterium marinum M; experiment: REMA MIC; format: cell-based
[28] = system: Mycobacterium avium; experiment: REMA MIC; format: cell-based
[29] = system: Mycobacterium tuberculosis Erdman; experiment: REMA MIC; format: cell-based
[30] = system: Candida albicans; experiment: REMA MIC; format: cell-based
[31] = system: Mycobacterium vaccae ATCC 15483; experiment: REMA MIC; format: cell-based; conditions: Mycolicibacterium vaccae, ATCC15483
[32] = doses as high as 300 mg/kg twice a day
[33] = system: Listeria monocytogenes; experiment: REMA MIC; format: cell-based
[34] = system: Mtb-H37Rv; format: in vivo, BALB/c mice; conditions: 300 mg/kg twice a day for 9 days, vs vehicle TPGS, FIG. 4
[35] = system: Pseudomonas aeruginosa; experiment: REMA MIC; format: cell-based
[36] = system: Bacillus subtilis; experiment: REMA MIC; format: cell-based
[37] = table values in μM or words, read-out: IC50 intracellular
[38] = table values in μM or words, read-out: IC50 against Mtb in broth

Compound: Cc1c(OCC(F)(F)F)ccnc1C[S+]([O-])c1nc2ccccc2[nH]1 (stereo not shown) [R-Lansoprazole]
- IC50 [1, 37]: 1.47 µM
- IC50 ([2]; read-out: IC50 (inhibit Mtb)): < 40 µM
- IC50 [2, 38]: 32.8 µM

Compound: COCCCOc1ccnc(C[S+]([O-])c2nc3ccccc3[nH]2)c1C (stereo not shown) [Rabeprazole sodium]
- IC50 [1, 37]: 6 µM
- IC50 ([2]; read-out: IC50 (Mtb in broth)): 25 µM
- IC50 ([2]; read-out: IC50 (inhibit Mtb)): < 40 µM
- IC50 [2, 38]: 25 µM

Compound: COc1ccnc(C[S+]([O-])c2nc3ccc(OC(F)F)cc3[nH]2)c1OC (stereo not shown) [Pantoprazole]
- activity in ex vivo assay [1]: inactive
- activity in in vitro assay [2]: inactive
- activity in fibroblast survival assay [3]: inactive

Compound: Cc1c(OCC(F)(F)F)ccnc1C[S+]([O-])c1nc2ccccc2[nH]1 (racemic) [LPZ, (RS)-2-([3-méthyl-4-(2,2,2-trifluoroéthoxy)pyridin-2-yl]méthylsulfinyl)-1H-benzimidazole]
- IC50 ([1]; MRC-5 cells, FIG. 2A, read-out: IC50 (Mtb-GFP signal)): 1.47 µM
- IC50 [1, 37]: 1.47 µM
- decay in mycobacterial growth medium [4]: rapid decay
- IC50 [5]: 2.2 µM
- IC50 ([2]; read-out: IC50 (Mtb in broth)): 32.8 µM
- IC50 ([2]; read-out: IC50 (inhibit Mtb)): < 40 µM
- IC50 [2, 38]: 32.8 µM
- intracellular decay [6]: rapid intracellular decay
- fibroblast survival / protection against Mtb induced killing [3]: supported fibroblast survival at rates comparable to well established anti-mycobacterial drugs such as Rifampicin and Moxifloxacine; also recorded: inhibits the growth of Mtb as well as Rifampicin or Moxifloxacine

Compound: COCCCOc1ccnc(CSc2nc3ccccc3[nH]2)c1C [Rabeprazole sulfide]
- IC50 [1, 37]: 3 µM
- IC50 ([2]; read-out: IC50 (Mtb in broth)): 5 µM
- IC50 [2, 38]: 5 µM

Compound: Cc1c(SCCN2CCc3ccccc3C2)ccnc1CSc1nc2ccccc2[nH]1
- IC50 [2, 38]: 2.7 µM

Compound: Cc1c(Cl)ccnc1CSc1nc2ccccc2[nH]1 [4-Desmethoxypropoxyl-4-chloro rabebrazole sulfide]
- IC50 [1, 37]: 6 µM
- IC50 ([2]; read-out: IC50 (Mtb in broth)): 6 to 12 µM
- IC50 [2, 38]: 6 to 12 µM

Compound: COc1ccc2[nH]c([S+]([O-])Cc3ncc(C)c(OC)c3C)nc2c1 (stereo not shown) [Omeprazole]
- activity in ex vivo assay [1]: inactive
- activity in in vitro assay [2]: inactive
- activity in fibroblast survival assay [3]: inactive

Compound: FC(F)(F)Oc1ccc(C2CCN(c3ccc(CSc4nc5ccccc5[nH]4)cc3)CC2)cc1
- IC50 [2, 38]: ~48 µM

Compound: COc1ccc2[nH]c(SCc3ncc(C)cc3C)nc2c1
- IC50 intracellular ([1]; table values in μM or words): inactive
- IC50 against Mtb in broth ([2]; table values in μM or words): inactive

Compound: Cc1c(OCC(F)(F)F)ccnc1CS(=O)(=O)c1nc2ccccc2[nH]1
- IC50 intracellular ([1]; table values in μM or words): Inactive
- IC50 against Mtb in broth ([2]; table values in μM or words): Inactive

Compound: 5-hydroxy Lansoprazole potassium
- activity in ex vivo assay [1]: inactive
- activity in in vitro assay [2]: inactive

Compound: COc1ccnc(C[S+]([O-])c2nc3cc(OC(F)F)ccc3[nH]2)c1OC.[Na+] (stereo not shown)
- IC50 intracellular ([1]; table values in μM or words): Inactive
- IC50 against Mtb in broth ([2]; table values in μM or words): Inactive

Compound: Cc1c(OCC(F)(F)F)ccnc1CSc1nc2ccccc2[nH]1 [LPZS, Lanzoprazole sulfide]
- concentration in blood relative to Cmax [7]: 100 % of Cmax
- MIC [8]: > 100 µM
- MIC [9]: > 100 µM
- MIC [10]: > 100 µM
- IC50 ([1]; read-out: IC50 (intracellular activity)): 0.59 µM
- IC50 ([1]; table values in nM, read-out: IC50 intracellular): 0.59 µM
- activity towards the human proton pump [11]: no activity
- MIC [12]: > 100 µM
- TD50 [13]: 75 µM
- TD99 [13]: >100 µM
- MIC [14]: < 2 µM
- MIC [15]: > 100 µM
- MIC [16]: > 100 µM
- MIC [17]: > 100 µM
- MIC [18]: > 100 µM
- MIC [19]: > 100 µM
- MIC [20]: > 100 µM
- MIC [21]: > 100 µM
- TD50 [22]: 25 µM
- TD99 [22]: 100 µM
- MIC [23]: > 100 µM
- MIC [24]: 1.13 µM (≈ 0.399 µg/mL)
- MIC [25]: > 100 µM
- MIC [26]: 1.74 µM (≈ 0.615 µg/mL)
- MIC [27]: 100 µM (≈ 35.3 µg/mL)
- MIC [28]: > 100 µM
- MIC [29]: 1.21 µM (≈ 0.428 µg/mL)
- IC50 ([2]; read-out: IC50 (Mtb in broth)): 0.46 µM
- IC50 ([2]; table values in nM, read-out: IC50 against Mtb in broth): 0.46 µM
- MIC [30]: > 100 µM
- MIC [31]: > 100 µM
- signs of toxicity in mice [32]: no signs of toxicity
- MIC [33]: > 100 µM
- bacterial burden (cfu) in the lungs [34]: significantly reduced
- MIC [35]: > 100 µM
- MIC [36]: > 100 µM

Compound: COc1ccc2[nH]c([S+]([O-])Cc3ncc(C)c(OC)c3C)nc2c1 (stereo not shown) [drawing 26]
- IC50 intracellular ([1]; table values in μM or words): Inactive
- IC50 against Mtb in broth ([2]; table values in μM or words): Inactive
